Paper PMC10119279 (Scientific Reports, 2023)
“And” between values parts separate entries of the source, which are not always exact repeats. Equal values may be shown once. Read-outs that look alike come from different tables or passages of the source.

Assays:
[1] = In vivo pharmacokinetic experiment: plasma and urine balenine after acute oral ingestion; design: species or system human; conditions: for Urinary balenine excretion: urine up to 24 h; for Cmax: read-out: Cmax (peak plasma concentration)
Experimental: Six subjects (3 males and 3 females) participated in this PK study in which three increasing doses were tested. For the third dose, […] was replaced, due to pregnancy, by […] with similar CN1 activity. […] This means that half of the dose was administered as 5 mg/kg (weight-relative part) and the other half was an absolute dose based on the mean weight of the subjects of the third test day (341 mg; fixed part).
The day before a test day, subjects were asked to refrain from meat and fish. Upon arrival, a catheter was inserted in an antecubital vein and a fasted ethylenediaminetetraacetic acid (EDTA, 4 mL) and serum sample (3.5 mL, to determine CN1 activity) were collected. […] The following 2 h, every 30 min an EDTA blood sample was taken. Then after 3, 4, 5, 8 and 24 h, another sample was withdrawn. Urine was collected after 150 min, 5, 8 and 24 h. The subjects arrived in the lab and remained fasted until 2 h after ingesting the supplement. Subjects remained in the lab until the post 8 h blood sample, and returned the following morning for the post 24 h sample. Throughout the test day, food intake was standardized (lacto-ovo-vegetarian diet) ensuring minimal HCD intake for 24 h following supplement. Figure 5 gives a schematic overview of a test day.
Plasma samples were collected in pre-cooled (4 °C) EDTA tubes. Upon withdrawal, plasma was immediately deproteinized with 1:11 SSA, centrifuged (5 min, 16 000 g) and stored at − 20 °C.
Extraction of plasma and urine for UHPLC-MS/MS analysis went as follows: 150 µL of deproteinized plasma/urine (not deproteinized) was added to 215 µL of acetonitrile containing 1% formic acid, 10 µL of internal standard (IS) (carnosine-D4) and 25 µL ultrapure water or standard (calibration curve and quality control samples (QC)). Then samples were vortexed and centrifuged (15 min, 4 °C, 15,000 g). Supernatant was used for further analyses.
In the in vitro study, supernatant was diluted 40 times before injection. In the PK study, plasma samples from the 10 mg/kg condition and baseline urine samples were diluted 100 times. All other urine samples were diluted 1000 times. Dilutions were conducted with acetonitrile containing 1% formic acid.
Analyses were performed on a UHPLC-MS/MS platform consisting of an Acquity H-Class Quaternary Solvent Manager and Flow-Through-Needle Sample Manager with temperature controlled tray (8 °C) and column oven (60 °C). Chromatographic separation was achieved on an Acquity UPLC BEH amide column (2.1 mm × 100 mm, 1.7 µm) with an Acquity amide Vanguard pre-column. The system operated at a flow rate of 0.3 mL/min with solvent A (ultrapure water), solvent B (acetonitrile) and solvent C (200 mM ammonium formate with 0.04% ammonia) with the gradient shown in Table 2. The UPLC column effluent was interfaced to a Xevo TQ-XS® MS/MS system (plasma samples) and Xevo TQ-S® (urine samples), equipped with an electrospray ionization (ESI) probe operating in positive ion mode. Further MS settings included desolvation gas flow rate (15 L/h), desolvation temperature (600 °C), cone gas flow rate (800 L/h), source temperature (150 °C) and capillary voltage (0.75 kV). Transition details are depicted in Table 3. […] The detector operated in multiple reacting monitoring mode, scanning the two most intense transitions of the HCDs. Masslynx software 4.2 was used for instrument control and data extraction. Hardware and software were purchased from Waters (Milford, MA, USA).
CN1 activity was quantified by fluorometric determination of histidine following carnosine addition (based on Teufel et al., 2003).

Sprague Dawley rats = tested on: Sprague Dawley rats
Experimental: Following treatment, a 2 week observation period with twice daily examination for morbidity and mortality was performed.

[2] = tested on: serum carnosinase (CN1) enzyme; conditions: cited from earlier work
[3] = compared to carnosine and anserine; cited from earlier work
[4] = design: method as in PMID 30449006; conditions: ref 10; cited from earlier work
clinical = conditions: both, human, plasma and urine, oral
Experimental: Plasma concentrations were described using a 1-compartmental model, with sequential zero- and first-order absorption and linear elimination. Cumulative urine concentrations were fitted simultaneously with plasma concentrations. Inter-occasion variability was also implemented and assumed to follow a lognormal distribution. Residual variability was described using a combined error model, consisting of an additive and a proportional component. The following covariates were tested: sex, age, weight, CN1 activity and dose. Model evaluation was done based on standard goodness-of-fit metrics (objective function value, standard errors) and plots.

Cn1cnc(CC(NC(=O)CCN)C(=O)O)c1 [balenine, β-alanyl-N(τ)-methyl-L-histidine]
Urinary excretion as % of the ingested dose ([1]; 1 mg/kg oral): 27.3%
Urinary balenine excretion ([1]; 1 mg/kg oral): 19.3 ± 13.1 mg
Time plasma balenine remained significantly increased ([1]; 4 mg/kg oral): up to 3 h
Urinary excretion as % of the ingested dose ([1]; 4 mg/kg oral): 29.7%
Urinary balenine excretion ([1]; 4 mg/kg oral): 82.0 ± 40.5 mg
Cmax of balenine relative to anserine at the same dose ([1]; 10 mg/kg oral): 25.9 fold
Plasma iAUC of balenine relative to anserine ([1]; 10 mg/kg oral): 136 fold
Time plasma balenine remained significantly increased ([1]; 10 mg/kg oral): up to 8 h
Urinary excretion as % of the ingested dose ([1]; 10 mg/kg oral): 25.2%
Cmax ([1]; 10 mg/kg oral (fragmented dose), human, n = 6): 28 µM
Plasma iAUC ([1]; 10 mg/kg oral, human): 8960 µM·min
Urinary balenine excretion ([1]; 10 mg/kg oral): 176 ± 95.9 mg
Average excreted percentage of the dose in urine (intact) ([1]; average over doses, n = 6): 27.4%
Cmax ([1]; both sexes, human, plasma, po, 1 mg/kg, 1 mg/kg oral, human, n = 6): 1.6 ± 0.5 µM
Cmax ([1]; both sexes, human, plasma, po, 4 mg/kg, 4 mg/kg oral, human, n = 6): 7.1 ± 1.2 µM
Cmax ([1]; both sexes, human, plasma, po, 10 mg/kg, 10 mg/kg oral (fragmented dose), human, n = 6): 28.2 ± 7.4 µM
Cmax ratio 4 mg/kg vs 1 mg/kg ([1]; oral, human): 4.4 times
Cmax ratio 10 mg/kg vs 1 mg/kg ([1]; oral, human): 17.6 fold and 18 fold
Cmax ratio 10 mg/kg vs 4 mg/kg ([1]; oral, human): 4 times
Urinary excretion after 1 mg/kg: times lower than after 4 mg/kg ([1]; oral, human): 4 times
iAUC ratio 4 mg/kg vs 1 mg/kg ([1]; oral, human): 3.8 times
iAUC ratio 10 mg/kg vs 1 mg/kg ([1]; oral, human): 14.2 fold
iAUC ratio 10 mg/kg vs 4 mg/kg ([1]; oral, human): 3.7 times
Pathological changes, morbidity and mortality (Sprague Dawley rats; female Sprague Dawley rats, acute increasing doses up to 2000 mg/kg, 2 week observation): No pathological changes were observed in any animal
Dose concluded safe (Sprague Dawley rats; female, Sprague Dawley, rat, in vivo, 2 weeks): 2000 mg/kg
Duration of zero-order input (dT1) (1 and 4 mg/kg doses, shorter for 10 mg/kg): 1.13 h
Absorption constant (ka) (first-order absorption, fixed to last estimated value): 3.48 h⁻¹
Fraction excreted in urine (pu) (population estimate): 0.56
Substrate quality for the CN1 enzyme ([2]; ref 15-17): poor
Rate of hydrolysis relative to carnosine ([2]; ref 15): 8%
Rate of hydrolysis relative to carnosine ([2]; ref 16): 3.81%
Hydrolysis rate as % of carnosine's ([2]; several in vitro experiments): 5–20%
Antioxidant and iron-chelating capacity [3]: higher antioxidant and iron-chelating capacity than carnosine and anserine
Ability to quench reactive aldehydes such as HNE and acrolein [4]: lacks the ability to quench reactive aldehydes
Vd (clinical): 126 L
clearance (clinical): 327 mL/min
half-life (clinical): 12 min
